Assay results reported in patent publication US20100324124A1, “Compositions and methods relating to DNA-based particles” (Massachusetts Institute of Technology, priority 2009, published 2010).

Tested on: B16F10 melanoma tumors
Assay: In vivo treatment of established B16F10 melanoma tumors, single intratumoral injection
Details: 100 μg DOX, C57B1/6 mice
Protocol: FIG. 7 illustrates in vivo tumor regression mediated by doxobucin-loaded nanoparticles. 5×10^6 Gaussia-luciferase-expressing B16F10 melanoma cells were subcutaneously injected into left flank of C57B1/6 mice. Tumors were allowed to establish and grow to ˜0.5 cm in diameter, and mice were divided randomly into groups of 8 per condition: group 1, no treatment (PBS); group 2, treated with free doxorubicin (100 μg DOX); group 3, treated with doxorubicin-imbedded liposome (100 μg DOX); and group 4, treated with doxorubicin-imbedded nucleic acid nanoparticle (100 μg DOX). Treatments were administered by intratumoral injection in 250 μl volumes. Tumors were measured every day with calipers in two dimensions. Tumor growth curves are plotted as the mean tumor area±standard deviation. Shown at bottom left is bioluminescence imaging of a mouse with an untreated tumor (left) and a mouse that received an injection of doxorubicin-imbedded nucleic acid nanoparticles (right). Animals were sacrificed after the last measurement and the tumors were excised and fixed for histology section. […]

COc1cccc2c1C(=O)c1c(O)c3c(c(O)c1C2=O)C[C@@](O)(C(=O)CO)C[C@@H]3O[C@H]1C[C@H](N)[C@H](O)[C@H](C)O1 [free doxorubicin, Doxorubicin] was tested, and the “effect on tumor growth relative to saline-injected control animals” value was “no effect on tumor growth”.
